Data set [1] has as its system PC-3 prostate cancer cell line. Nature of the data set: MTT cell viability assay, PC-3. The format is cell-based. As to conditions: Homo sapiens, treatment 72 h and 96 h, mean ± SD of three experiments. As to the method: (§1) The human HCT116 colon cancer cell line and PC-3 prostate cancer cell line were obtained from the American Type Cell Culture (ATCC, Bethesda, Md). Both cell lines were grown in 75 cm^2 culture flasks at 37 °C in 5% CO2 using Roswell Park Memorial Institute 1640 medium (RPMI 1640, Gibco) and Dulbecco’s modified Eagle’s medium F/12 (DMEM/F-12, Gibco), respectively, containing 10% fetal bovine serum (FBS, Gibco). To test the inhibitory activities of compounds using a cell-based assay, MTT assay was performed for cell viability, as described previously. Briefly, HCT116 cells were plated at a density of 1500 per well, while PC-3 cells were plated at a density of 750 per well in a 96-well plate. After 24 h, cells were treated with the indicated compounds in a dose-dependent manner for 72 h and 96 h (all tested compounds provided clear solutions). MTT [3-(4,5-dimethylthiazol-2-yl)-2,5-diphenyltetrazolium bromide] (Sigma M-5655) was added at a final concentration of 0.5 mg/mL directly to each well for 4 h at 37 °C. The medium was aspirated, and the blue MTT formazan precipitate was dissolved in dimethyl sulfoxide (DMSO). Absorbance was determined in a Powerwave microplate spectrophotometer (Biotek Instruments, Inc.) at 540 nm. Viable cell numbers were determined by tetrazolium conversion to its formazan dye. The IC50 was calculated by Microsoft Excel equation and confirmed by GraphPad Prism (7.0). Each experiment was performed in triplicate and mean values ± SD are reported.
In general terms: Tetrazolium assays rely on reduction of a dye to a coloured formazan, in cell work by metabolically active cells.

Data set [2] concerns HCT116 colon cancer cell line. Nature of the data set: MTT cell viability assay, HCT116. The format is cell-based. The settings on record: Homo sapiens, HCT-116, treatment 72 h and 96 h, mean ± SD of three experiments. How it is done: as §1
For data set [3], the system named is normal human fibroblasts (WI-38). Nature of the data set: MTT cytotoxicity towards normal fibroblasts. The format is cell-based. As to conditions: WI-38; for IC50: MTT, normal human fibroblasts. As to the method:
as §1
Figure 1 Dose-response curves for the administration of 14b, 26b, 35b on HCT116, PC-3 and WI-38 cells, as assessed by the MTT assay. Results are expressed as a percentage of controls. Statistical analysis was performed in triplicate determination at p < 0.05.

The structures appear in SMILES notation.

As usually defined, the IC50 is the concentration needed to halve the response being measured. High values mean lower potency, low ones higher potency. As usually defined, the melting point is the temperature, or range, at which the solid turns liquid.

As to `COc1ccc(Cn2cc(-c3cccc(F)c3)c3ncnc(N4CCN(C)CC4)c32)cc1` [25b, 7-(3-Fluorophenyl)-5-(4-methoxybenzyl)-4-(4-methylpiperazin-1-yl)-5H-pyrrolo[3,2-d]pyrimidine], the melting point lay in the range of 151 to 152 °C. This molecule showed an IC50 in data set [1] of over 10 µM. Also, in data set [2], the IC50 was over 10 µM.

Take `CN1CCN(c2nccc3c(-c4ccccc4)c[nH]c23)CC1` [14e, 7-(4-Methylpiperazin-1-yl)-3-phenyl-1H-pyrrolo[2,3-c]pyridine]: the melting point lay within 220 to 221 °C. In data set [1], this molecule displayed an IC50 of 1.75 ± 0.25 µM. In data set [2], the IC50 was determined as 2.85 ± 0.05 µM. The molecule also showed an IC50 in data set [3] of under 10 µM.

`CN1CCN(c2ncnc3c(-c4ccccc4)c[nH]c23)CC1` [26e, 4-(4-Methylpiperazin-1-yl)-7-phenyl-5H-pyrrolo[3,2-d]pyrimidine] returned a melting point of over 250 °C. The IC50 in data set [1] was over 10 µM. This molecule registered an IC50 in data set [2] of over 10 µM.

`c1ccc(Nc2nccc3c(-c4ccccc4)c[nH]c23)cc1` [14a, Ν,3-Diphenyl-1H-pyrrolo[2,3-c]pyridin-7-amine] came in with a melting point of 139 to 140 °C. For the same molecule, the half-maximal inhibitory concentration (IC50) in data set [1] worked out at 0.215 ± 0.025 µM. In data set [2], this molecule yielded an IC50 of 5 ± 0.1 µM. In addition, in data set [3], the “cytotoxicity to normal cells in words” value is given as “rather cytotoxic to normal cells” and the IC50 is under 10 µM.

As for `COc1ccc(Cn2cc(-c3ccccc3)c3ncnc(Nc4cc(OC)c(OC)c(OC)c4)c32)cc1` [24c, 5-(4-Methoxybenzyl)-N-(3,4,5-trimethoxyphenyl)-7-phenyl-5H-pyrrolo[3,2-d]pyrimidin-4-amine], the melting point was in the range of 187 to 188 °C. In addition, the IC50 in data set [1] was found to be 2.25 ± 0.35 µM. For the same molecule, the IC50 in data set [2] worked out at 4.5 ± 0.25 µM.

Turning to `COc1ccc(Cn2cc(-c3ccccc3)c3ncnc(Nc4ccccc4)c32)cc1` [24a, 5-(4-Methoxybenzyl)-Ν,7-diphenyl-5H-pyrrolo[3,2-d]pyrimidin-4-amine], the melting point fell in the range of 57 to 58 °C. This molecule also returned an IC50 in data set [1] of over 10 µM. This molecule also returned an IC50 in data set [2] of over 10 µM.

In turn, `COc1cc(Nc2ncnc3c(-c4cccc(F)c4)c[nH]c23)cc(OC)c1OC` [26d, 7-(3-Fluorophenyl)-N-(3,4,5-trimethoxyphenyl)-5H-pyrrolo[3,2-d]pyrimidin-4-amine] showed a melting point of 139 to 140 °C. In data set [1], this molecule showed an IC50 of 5.9 ± 0.37 µM. For the same molecule, in data set [2], half-maximal inhibition (IC50) required 8.7 ± 0.58 µM.

Consider `c1ccc(Nc2ncnc3c(-c4ccccc4)n[nH]c23)cc1` [35a, N,3-Diphenyl-1H-pyrazolo[4,3-d]pyrimidin-7-amine], for which the IC50 in data set [1] worked out at 4.7 ± 0.18 µM; in data set [2] it was 7.3 ± 0.62 µM.

As for `CN1CCN(c2nccc3c(-c4cccc(F)c4)c[nH]c23)CC1` [14f, 3-(3-Fluorophenyl)-7-(4-methylpiperazin-1-yl)-1H-pyrrolo[2,3-c]pyridine], the melting point lay in the range of 209 to 210 °C. Further, the IC50 in data set [1] is 2.35 ± 0.05 µM. For the same molecule, in data set [2], the IC50 stood at 2.35 ± 0.15 µM.

In turn, `COc1ccc(Cn2cc(-c3ccccc3)c3ncnc(N4CCN(C)CC4)c32)cc1` [25a, 5-(4-Methoxybenzyl)-4-(4-methylpiperazin-1-yl)-7-phenyl-5H-pyrrolo[3,2-d]pyrimidine] yielded a melting point of 150 to 151 °C. Also, the IC50 in data set [1] is over 10 µM. Moreover, in data set [2], the IC50 is over 10 µM.

`COc1cc(Nc2ncnc3c(-c4ccccc4)c[nH]c23)cc(OC)c1OC` [26c, N-(3,4,5-Trimethoxyphenyl)-7-phenyl-5H-pyrrolo[3,2-d]pyrimidin-4-amine] came in with a melting point of over 250 °C. The same molecule had an IC50 in data set [1] of 9.7 ± 0.5 µM. Further, the IC50 in data set [2] amounted to 7.8 ± 0.45 µM.

`COc1cc(Nc2ncnc3c(-c4cccc(F)c4)n[nH]c23)cc(OC)c1OC` [35d, 3-(3-Fluorophenyl)-N-(3,4,5-trimethoxyphenyl)-1H-pyrazolo[4,3-d]pyrimidin-7-amine] returned a melting point of over 250 °C. This molecule displayed an IC50 in data set [1] of over 10 µM. In addition, the IC50 in data set [2] was over 10 µM.

`COc1ccc(Cn2cc(-c3cccc(F)c3)c3ccnc(Nc4ccccc4)c32)cc1` [10b, 3-(3-Fluorophenyl)-1-(4-methoxybenzyl)-Ν-phenyl-1H-pyrrolo[2,3-c]pyridin-7-amine] registered a melting point of 165 to 166 °C. In data set [1], the 50% inhibitory concentration (IC50) was over 10 µM. The molecule further showed an IC50 in data set [2] of over 10 µM.

As for `COc1ccc(Cn2cc(-c3cccc(F)c3)c3ncnc(Nc4cc(OC)c(OC)c(OC)c4)c32)cc1` [24d, 7-(3-Fluorophenyl)-5-(4-methoxybenzyl)-N-(3,4,5-trimethoxyphenyl)-5H-pyrrolo[3,2-d]pyrimidin-4-amine], the melting point was in the range of 96 to 97 °C. The IC50 in data set [1] was over 10 µM. Also, the IC50 in data set [2] was over 10 µM.

As for `COc1ccc(Cn2cc(-c3cccc(F)c3)c3ncnc(Nc4ccccc4)c32)cc1` [24b, 7-(3-Fluorophenyl)-5-(4-methoxybenzyl)-Ν-phenyl-5H-pyrrolo[3,2-d]pyrimidin-4-amine], the melting point is 131 to 132 °C. Besides, the IC50 in data set [1] is over 10 µM. In data set [2], the half-maximal inhibitory concentration (IC50) was over 10 µM.

Take `COc1cc(Nc2nccc3c(-c4ccccc4)c[nH]c23)cc(OC)c1OC` [14c, N-(3,4,5-trimethoxyphenyl)-3-phenyl-1H-pyrrolo[2,3-c]pyridin-7-amine]: the melting point lay in the range of 153 to 154 °C. The same molecule gave an IC50 in data set [1] of 0.47 ± 0.12 µM. Besides, the IC50 in data set [2] came out at 0.72 ± 0.09 µM. Further, the half-maximal inhibitory concentration (IC50) in data set [3] was under 10 µM.

As for `COc1ccc(Cn2cc(-c3ccccc3)c3ccnc(Nc4cc(OC)c(OC)c(OC)c4)c32)cc1` [10c, 1-(4-Methoxybenzyl)-Ν-(3,4,5-trimethoxyphenyl)-3-phenyl-1H-pyrrolo[2,3-c]pyridin-7-amine], the melting point lay in the range of 136 to 137 °C. The IC50 in data set [1] is 9.8 ± 0.25 µM. This molecule returned an IC50 in data set [2] of 9.4 ± 0.53 µM.

For the molecule `COc1ccc(Cn2cc(-c3cccc(F)c3)c3ccnc(Nc4cc(OC)c(OC)c(OC)c4)c32)cc1` [10d, 3-(3-Fluorophenyl)-1-(4-methoxybenzyl)-Ν-(3,4,5-trimethoxyphenyl)-1H-pyrrolo[2,3-c]pyridin-7-amine], the melting point was 93 to 94 °C. This molecule yielded an IC50 in data set [1] of over 10 µM. The IC50 in data set [2] is over 10 µM.

As for `CN1CCN(c2ncnc3c(-c4cccc(F)c4)c[nH]c23)CC1` [26f, 7-(3-Fluorophenyl)-4-(4-methylpiperazin-1-yl)-5H-pyrrolo[3,2-d]pyrimidine], the IC50 in data set [1] and in data set [2] was over 10 µM in each case.

In turn, `c1ccc(Nc2ncnc3c(-c4ccccc4)c[nH]c23)cc1` [26a, Ν,7-Diphenyl-5H-pyrrolo[3,2-d]pyrimidin-4-amine] had a melting point of over 250 °C. In addition, half-maximal inhibition in data set [1] (IC50) was put at 6.2 ± 0.23 µM. Further, it took 2.75 ± 0.35 µM to reach half-maximal inhibition in data set [2] (IC50).

The molecule `COc1ccc(Cn2cc(-c3ccccc3)c3ccnc(Nc4ccccc4)c32)cc1` [10a, 1-(4-Methoxybenzyl)-Ν,3-diphenyl-1H-pyrrolo[2,3-c]pyridin-7-amine] came in with a melting point of 180 to 181 °C. In data set [1], this molecule came in with an IC50 of over 10 µM. Moreover, in data set [2], half-maximal inhibition (IC50) required 2.4 ± 0.1 µM.

For `COc1cc(Nc2nccc3c(-c4cccc(F)c4)c[nH]c23)cc(OC)c1OC` [14d, 3-(3-Fluorophenyl)-N-(3,4,5-trimethoxyphenyl)-1H-pyrrolo[2,3-c]pyridin-7-amine], the melting point is 149 to 150 °C. The IC50 in data set [1] is 1.45 ± 0.25 µM. For the same molecule, the IC50 in data set [2] stood at 3.9 ± 0.3 µM. The molecule further returned an IC50 in data set [3] of under 10 µM.

Consider `CN1CCN(c2ncnc3c(-c4ccccc4)n[nH]c23)CC1` [35e, 7-(4-Methylpiperazin-1-yl)-3-phenyl-1H-pyrazolo[4,3-d]pyrimidine], for which the IC50 in data set [1] and in data set [2] was over 10 µM throughout.

In turn, `COc1ccc(Cn2cc(-c3ccccc3)c3ccnc(N4CCN(C)CC4)c32)cc1` [13a, 1-(4-Methoxybenzyl)-7-(4-methylpiperazin-1-yl)-3-phenyl-1H-pyrrolo[2,3-c]pyridine] yielded a melting point of 88 to 89 °C. In data set [1], the IC50 is 7 ± 0.4 µM. For the same molecule, the IC50 in data set [2] came to 5 ± 0.18 µM.

As for `COc1ccc(Cn2cc(-c3cccc(F)c3)c3ccnc(N4CCN(C)CC4)c32)cc1` [13b, 3-(3-Fluorophenyl)-1-(4-methoxybenzyl)-7-(4-methylpiperazin-1-yl)-1H-pyrrolo[2,3-c]pyridine], the IC50 came out at 9.3 ± 0.76 µM in data set [1] and 4.4 ± 0.35 µM in data set [2].

Regarding `CN1CCN(c2ncnc3c(-c4cccc(F)c4)n[nH]c23)CC1` [35f, 3-(3-Fluorophenyl)-7-(4-methylpiperazin-1-yl)-1H-pyrazolo[4,3-d]pyrimidine], the IC50 in data set [1] and in data set [2] was over 10 µM each time.

Take `COc1cc(Nc2ncnc3c(-c4ccccc4)n[nH]c23)cc(OC)c1OC` [35c, 3-Phenyl-N-(3,4,5-trimethoxyphenyl)-1H-pyrazolo[4,3-d]pyrimidin-7-amine]: the melting point was over 250 °C. The IC50 in data set [1] worked out at 5.7 ± 0.4 µM. This molecule also returned an IC50 in data set [2] of 4.7 ± 0.25 µM.

The values above are taken from PMC8746528, “Novel Substituted Purine Isosteres: Synthesis, Structure-Activity Relationships and Cytotoxic Activity Evaluation” (Molecules, 2021).
